Biological target: Bromodomain-containing protein 4 (Homo sapiens, UniProt O60885)
Experiment: FP Competitive Binding Assay (No.350)
Settings: 25 °C
Method: Fluorescence Polarization (FP) competitive binding studies (see above) were carried out using the FAM labeled fluorescent probe Cpd. No. 350 to determine binding affinities of representative compounds to both BD1 and BD2 of BRD2, BRD3, and BRD4 proteins. Equilibrium dissociation constants (Id) values of Cpd. […] Final Cpd. […] Kd values of Cpd.

Row | SMILES | Ki
1 | COc1cc2c(cc1-c1c(C)noc1C)[nH]c1nc(C)nc(-c3ccc(NC(=O)N4CCN(C)CC4)c4ccccc34)c12 [US9675697, Cpd. No. 316] | 2.9 nM
2 | COc1cc2c(cc1-c1c(C)noc1C)[nH]c1nc(C)nc(-c3ccc(NC(=O)N4CCN(C5COC5)CC4)c4ccccc34)c12 [US9675697, Cpd. No. 317] | 7.1 nM

Source: BindingDB's records for patent US9675697 (University of Michigan, 2017)
